Patent publication US8067589B2, “Heterocyclic compounds useful in treating diseases and conditions” (Pfizer Inc, priority 2007, dated 2011)

Molecular target: human recombinant H-PGDS (Homo sapiens, UniProt O60760)
Test: Fluoresecence Intensity h-PGDSTBA Enzyme Assay
Settings: IC50, 5.0 μM PGH2, 2.5 mM L-Glutathione, 10 min preincubation, 4-parameter fit, highest inhibitor concentration typically 1 μM

Chain of human recombinant H-PGDS (O60760 whole entry): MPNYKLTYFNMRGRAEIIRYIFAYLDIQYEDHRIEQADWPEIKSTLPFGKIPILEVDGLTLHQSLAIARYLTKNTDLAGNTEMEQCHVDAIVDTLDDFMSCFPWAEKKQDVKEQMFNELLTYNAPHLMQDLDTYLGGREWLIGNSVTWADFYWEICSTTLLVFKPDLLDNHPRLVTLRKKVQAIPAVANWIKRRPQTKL

CS(=O)(=O)Nc1cccc(-c2ncc(C(=O)NC3CCN(Cc4ccccn4)CC3)cn2)c1 [Example 176, 2-{3-[(Methylsulfonyl)amino]phenyl}-N-[1-(pyridin-2-ylmethyl)piperidin-4-yl]pyrimidine-5-carboxamide]
IC50: 2700 nM
